Like-named read-outs stand apart in the source and are kept apart here.
Key:
[1] = biological target: biotinylated human Gal-3 (hGal-3) (Homo sapiens, UniProt P17931); test: Competitive binding assay: biotinylated hGal-3 binding to microplate-adsorbed asialofetuin (ASF), spectrophotometric
Method in brief: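 Serially diluted compounds competed with asialofetuin on the plate for biotinylated human Gal-3 during a 3 h incubation at 4° C. Streptavidin-peroxidase with ABTS gave the spectrophotometric signal. IC50 values were averaged over repeat runs.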

human Gal-1 (hGal-1) = human Gal-1 (hGal-1) (Homo sapiens, UniProt P09382); test: Competitive binding assay: biotinylated hGal-1 binding to microplate-adsorbed asialofetuin (ASF), spectrophotometric; settings: hGal-1 binding to asialofetuin; Table 15; R and S epimers of selected Examples also listed; read-out: IC50 (Galectin-1 inhibition)
Chain of human Gal-1 (hGal-1) (P09382 whole entry): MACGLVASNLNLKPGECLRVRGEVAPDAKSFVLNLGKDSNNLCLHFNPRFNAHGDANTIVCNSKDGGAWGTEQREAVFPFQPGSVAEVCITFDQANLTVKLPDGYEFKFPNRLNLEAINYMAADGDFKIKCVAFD
Method in brief: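 Spectrophotometric competition readout with ABTS after streptavidin-peroxidase (80 ng/mL, 1 h, 4 °C) detection of bound biotinylated hGal-1.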

[2] = Gal-3 inhibition, Table 5, read-out: IC50
[3] = Gal-3 inhibition, Table 4, read-out: IC50
[4] = Table 9, hGal-3, read-out: IC50 (Gal-3 inhibition)
[5] = Table 12, hGal-3, read-out: IC50 (Gal-3 inhibition)

Chain of biotinylated human Gal-3 (hGal-3) (P17931 whole entry): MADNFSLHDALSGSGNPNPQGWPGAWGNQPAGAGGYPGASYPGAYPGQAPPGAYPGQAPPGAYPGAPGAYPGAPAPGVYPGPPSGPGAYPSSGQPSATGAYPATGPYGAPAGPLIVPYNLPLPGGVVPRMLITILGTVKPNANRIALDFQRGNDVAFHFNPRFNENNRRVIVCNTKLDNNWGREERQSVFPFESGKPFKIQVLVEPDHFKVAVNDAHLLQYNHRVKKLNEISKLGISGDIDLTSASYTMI

Row | Molecule | IC50 [1, 2] [nM] | IC50 (human Gal-1 (hGal-1)) [nM] | other results
1 | CCN(C)C(=O)[C@@H](S[C@@H]1O[C@H](CO)[C@H](O)[C@H](n2cc(-c3cc(F)c(F)c(F)c3)nn2)[C@H]1O)C1(O)CC(F)(F)C1 [Example 2.33.203S., (S)-2-(3,3-Difluoro-1-hydroxycyclobutyl)-2-(((2S,3R,4S,5R,6R)-3,5-dihydroxy-6-(hydroxymethyl)-4-(4-(3,4,5-trifluorophenyl)-1H-1,2,3-triazol-1-yl)tetrahydro-2H-pyran-2-yl)thio)-N-ethyl-N-methylacetamide] | 50 | 110 | 
2 | 2-(1,1-Difluoro-6-hydroxyspiro[2.5]octan-6-yl)-1-(4,4-difluoropiperidin-1-yl)-2-(((2S,3R,4S,5R,6R)-5-hydroxy-6-(hydroxymethyl)-3-methoxy-4-(4-(3,4,5-trifluorophenyl)-1H-1,2,3-triazol-1-yl)tetrahydro-2H-pyran-2-yl)thio)ethan-1-one [Example 2.73.226.I.] |  | 150 | IC50 ([1]; Table 13, hGal-3, read-out: IC50 (Gal-3 inhibition)): 100 nM
3 | CN(CC1CC1)C(=O)C(S[C@@H]1O[C@H](CO)[C@H](O)[C@H](n2cc(-c3cc(F)c(F)c(F)c3)nn2)[C@H]1O)C1(O)CCC(F)(F)CC1 (stereo partly drawn) [Example 2.44.218., N-(Cyclopropylmethyl)-2-(4,4-difluoro-1-hydroxycyclohexyl)-2-(((2S,3R,4S,5R,6R)-3,5-dihydroxy-6-(hydroxymethyl)-4-(4-(3,4,5-trifluorophenyl)-1H-1,2,3-triazol-1-yl)tetrahydro-2H-pyran-2-yl)thio)-N-methylacetamide] | 20 | 30 | 
4 | (2R,3R,4S,5R,6S)-2-(Acetoxymethyl)-6-(((S)-2-(ethyl(methyl)amino)-1-(3-hydroxy-1-(methoxycarbonyl)azetidin-3-yl)-2-oxoethyl)thio)-4-(4-(3,4,5-trifluorophenyl)-1H-1,2,3-triazol-1-yl)tetrahydro-2H-pyran-3,5-diyl diacetate [Example 2.58.203S.] |  | 100 | IC50 ([1]; Table 8, hGal-3, read-out: IC50 (Gal-3 inhibition)): 30 nM
5 | O=C([C@@H](S[C@@H]1O[C@H](CO)[C@H](O)[C@H](n2cc(-c3cc(F)c(F)c(F)c3)nn2)[C@H]1O)C1(O)CCOCC1)N1CCc2ccccc21 [Example 2.41.209S., (S)-2-(((2S,3R,4S,5R,6R)-3,5-Dihydroxy-6-(hydroxymethyl)-4-(4-(3,4,5-trifluorophenyl)-1H-1,2,3-triazol-1-yl)tetrahydro-2H-pyran-2-yl)thio)-2-(4-hydroxytetrahydro-2H-pyran-4-yl)-1-(indolin-1-yl)ethan-1-one] |  | 170 | IC50 [1, 3]: 100 nM
6 | CCN(C)C(=O)C(S[C@@H]1O[C@H](CO)[C@H](O)[C@H](n2cc(-c3cc(F)c(F)c(F)c3)nn2)[C@H]1O)C(C)(C)O (stereo partly drawn) [Example 2.31.203., 2-(((2S,3R,4S,5R,6R)-3,5-Dihydroxy-6-(hydroxymethyl)-4-(4-(3,4,5-trifluorophenyl)-1H-1,2,3-triazol-1-yl)tetrahydro-2H-pyran-2-yl)thio)-N-ethyl-3-hydroxy-N,3-dimethylbutanamide] |  | 880 | IC50 ([1]; Gal-3 inhibition, Table 3, read-out: IC50): 210 nM
7 | O=C([C@@H](S[C@@H]1O[C@H](CO)[C@H](O)[C@H](n2cc(-c3cc(F)c(F)c(F)c3)nn2)[C@H]1O)C1(O)CCC1)N1CCCCC1 [Example 2.34.208S., (S)-2-(((2S,3R,4S,5R,6R)-3,5-Dihydroxy-6-(hydroxymethyl)-4-(4-(3,4,5-trifluorophenyl)-1H-1,2,3-triazol-1-yl)tetrahydro-2H-pyran-2-yl)thio)-2-(1-hydroxycyclobutyl)-1-(piperidin-1-yl)ethan-1-one] | 140 | 140 | 
8 | CN(C(=O)[C@H](S[C@@H]1O[C@H](CO)[C@H](O)[C@H](n2cc(-c3cc(F)c(F)c(F)c3)nn2)[C@H]1O)C1(O)CCOCC1)c1cccnc1 [Example 2.41.234R] |  | 10900 | IC50 [1, 4]: 7800 nM
9 | CCN(C)C(=O)[C@@H](S[C@@H]1O[C@H](CO)[C@H](O)[C@H](n2cc(-c3cc(F)c(F)c(F)c3)nn2)[C@H]1O)C1(O)CCOCC1 [Example 2.41.203S., (S)-2-(((2S,3R,4S,5R,6R)-3,5-Dihydroxy-6-(hydroxymethyl)-4-(4-(3,4,5-trifluorophenyl)-1H-1,2,3-triazol-1-yl)tetrahydro-2H-pyran-2-yl)thio)-N-ethyl-2-(4-hydroxytetrahydro-2H-pyran-4-yl)-N-methylacetamide] | 30 | 67 | 
10 | CO[C@@H]1[C@@H](n2cc(-c3cc(F)c(F)c(F)c3)nn2)[C@@H](O)[C@@H](CO)O[C@H]1SC(C(=O)N(C)CC(C)(C)F)C1(O)CCC(F)(F)CC1 (stereo partly drawn) [Example 2.44.222.1., 2-(4,4-Difluoro-1-hydroxycyclohexyl)-N-(2-fluoro-2-methylpropyl)-2-(((2S,3R,4S,5R,6R)-5-hydroxy-6-(hydroxymethyl)-3-methoxy-4-(4-(3,4,5-trifluorophenyl)-1H-1,2,3-triazol-1-yl)tetrahydro-2H-pyran-2-yl)thio)-N-methylacetamide] |  | 220 | IC50 [1, 5]: 50 nM
11 | CC(C)CN(C)C(=O)[C@@H](S[C@@H]1O[C@H](CO)[C@H](O)[C@H](n2cc(-c3cc(F)c(F)c(F)c3)nn2)[C@H]1O)C1(O)CCOCC1 [Example 2.41.200S., (S)-2-(((2S,3R,4S,5R,6R)-3,5-Dihydroxy-6-(hydroxymethyl)-4-(4-(3,4,5-trifluorophenyl)-1H-1,2,3-triazol-1-yl)tetrahydro-2H-pyran-2-yl)thio)-2-(4-hydroxytetrahydro-2H-pyran-4-yl)-N-isobutyl-N-methylacetamide] |  | 110 | IC50 ([1]; Gal-3 inhibition, Table 2, read-out: IC50): 50 nM
12 | CN(C(=O)[C@@H](S[C@@H]1O[C@H](CO)[C@H](O)[C@H](n2cc(-c3cc(F)c(F)c(F)c3)nn2)[C@H]1O)C1(O)CCOCC1)c1ccccc1 [Example 2.41.231S.] |  | 50 | IC50 [1, 4]: 70 nM
13 | CO[C@@H]1[C@@H](n2cc(-c3cc(F)c(F)c(F)c3)nn2)[C@@H](O)[C@@H](CO)O[C@H]1SC(C(=O)NCC(F)(F)F)C1(O)CCC(F)(F)CC1 (stereo partly drawn) [Example 2.44.254.I., 2-(4,4-Difluoro-1-hydroxycyclohexyl)-2-(((2S,3R,4S,5R,6R)-5-hydroxy-6-(hydroxymethyl)-3-methoxy-4-(4-(3,4,5-trifluorophenyl)-1H-1,2,3-triazol-1-yl)tetrahydro-2H-pyran-2-yl)thio)-N-(2,2,2-trifluoroethyl)acetamide] |  | 300 | IC50 [1, 5]: 130 nM
14 | CN(Cc1cccs1)C(=O)C(S[C@@H]1O[C@H](CO)[C@H](O)[C@H](n2cc(-c3cc(F)c(F)c(F)c3)nn2)[C@H]1O)C1(O)CCOCC1 (stereo partly drawn) [Example 2.41.210., 2-(((2S,3R,4S,5R,6R)-3,5-dihydroxy-6-(hydroxymethyl)-4-(4-(3,4,5-trifluorophenyl)-1H-1,2,3-triazol-1-yl)tetrahydro-2H-pyran-2-yl)thio)-2-(4-hydroxytetrahydro-2H-pyran-4-yl)-N-methyl-N-(thiophen-2-ylmethyl)acetamide] |  | 1120 | IC50 [1, 3]: 440 nM
15 | CN(CC1CC1)C(=O)[C@@H](S[C@@H]1O[C@H](CO)[C@H](O)[C@H](n2cc(-c3cc(F)c(F)c(F)c3)nn2)[C@H]1O)C1(O)CC(F)(F)C1 [Example 2.33.218S., (S)-N-(Cyclopropylmethyl)-2-(3,3-difluoro-1-hydroxycyclobutyl)-2-(((2S,3R,4S,5R,6R)-3,5-dihydroxy-6-(hydroxymethyl)-4-(4-(3,4,5-trifluorophenyl)-1H-1,2,3-triazol-1-yl)tetrahydro-2H-pyran-2-yl)thio)-N-methylacetamide] | 40 | 60 | 
16 | CN(CC(C)(C)F)C(=O)C(S[C@@H]1O[C@H](CO)[C@H](O)[C@H](n2cc(-c3cc(F)c(F)c(F)c3)nn2)[C@H]1O)C1(O)CCC1 (stereo partly drawn) [Example 2.34.222., 2-(((2S,3R,4S,5R,6R)-3,5-Dihydroxy-6-(hydroxymethyl)-4-(4-(3,4,5-trifluorophenyl)-1H-1,2,3-triazol-1-yl)tetrahydro-2H-pyran-2-yl)thio)-N-(2-fluoro-2-methylpropyl)-2-(1-hydroxycyclobutyl)-N-methylacetamide] | 410 | 220 | 
17 | CN(CC(C)(C)C)C(=O)[C@@H](S[C@@H]1O[C@H](CO)[C@H](O)[C@H](n2cc(-c3cc(F)c(F)c(F)c3)nn2)[C@H]1O)C1(O)CCC1 [Example 2.34.228S., (S)-2-(((2S,3R,4S,5R,6R)-3,5-Dihydroxy-6-(hydroxymethyl)-4-(4-(3,4,5-trifluorophenyl)-1H-1,2,3-triazol-1-yl)tetrahydro-2H-pyran-2-yl)thio)-2-(1-hydroxycyclobutyl)-N-methyl-N-neopentylacetamide] | 120 | 90 | 
18 | CO[C@@H]1[C@@H](n2cc(-c3cc(F)c(F)c(F)c3)nn2)[C@@H](O)[C@@H](CO)O[C@H]1S[C@@H](C(=O)N1CCC(F)(F)CC1)C1(O)CCC(F)(F)CC1 [Example 2.44.226R.I., (R)-2-(4,4-difluoro-1-hydroxycyclohexyl)-1-(4,4-difluoropiperidin-1-yl)-2-(((2S,3R,4S,5R,6R)-5-hydroxy-6-(hydroxymethyl)-3-methoxy-4-(4-(3,4,5-trifluorophenyl)-1H-1,2,3-triazol-1-yl)tetrahydro-2H-pyran-2-yl)thio)ethan-1-one] |  | 5730 | IC50 [1, 5]: 890 nM
